Consider eleven compounds from article PMC11239830, “Synthetic macrolides overcoming MLSBK-resistant pathogens” (Cell Discovery, 2024).

As usually defined, the melting point is the temperature of the solid-liquid transition. What is called Cmax is the peak of the concentration-time curve. As a reminder, the MRT is the average time that molecules of a dose stay in the body. For orientation: Tmax means the time from dosing to the highest level. The term half-life denotes the time in which the quantity being followed falls by half. A higher half-life goes with slow loss. The term AUC(0-inf) denotes total exposure, with the tail of the curve extrapolated. Lower therefore signals low exposure. What is called clearance is the volume of plasma or blood freed of the substance per unit of time. Read a low clearance as a low capacity for elimination.

One series deals with S. pyogenes. The series is described as follows: MIC, broth microdilution. It counts as cell-based, Streptococcus pyogenes. Summed up:
(§1)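 Minimum inhibitory concentrations were measured by broth microdilution following CLSI guidelines. Plates were incubated at 37 °C for 16–20 h before results were read and recorded, and each determination was repeated at least three times.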

Series [1] in a line: In vivo pharmacokinetic study. Also noted: species or system SD rats. As to conditions: SD (Sprague-Dawley), rat, iv, plasma. The method, then:
The SD rats were fasted overnight and dosed i.v. at a dose of 5 mg/kg in a solution of DMSO/PEG 400/water (5%/24%/71%). The whole blood was collected into tubes containing sodium heparin at 0.083 h, 0.25 h, 0.5 h, 1 h, 2 h, 4 h, 8 h and 24 h after dosing. After centrifugation of 6000 rpm for 10 min at 4 °C, plasma samples were transferred into 1.5 mL tubes and stored at –20 °C. Prior to analysis, the samples were thawed on ice. An amount of 50 μL of each plasma sample was added to a mixture of 50 μL of propranolol (300 ng/mL) and 100 μL of acetonitrile and centrifuged at 12,000 rpm at 4 °C for 10 min. The supernatant was diluted and analyzed by LC-MS/MS. The liquid chromatography was conducted on a Thermo Scientific Q Exactive HF-X (ThermoFisher Scientific, USA) instrument, employing an ACQUITY UPLC BEH C18 Column with dimensions of 130 Å, 1.7 µm, 2.1 mm × 100 mm. The liquid phase method employed gradient elution with mobile phases consisting of acetonitrile and an 0.1% aqueous formic acid solution. Mass spectrometry was conducted in positive ion mode. The quantification of drug concentration in plasma samples was performed using the internal standard method, and the obtained pharmacokinetic parameters were calculated using Phoenix WinNonlin software.

Another series concerns H. influenzae. The series is described as follows: MIC, broth microdilution. It counts as cell-based, Haemophilus influenzae. As to conditions: Haemophilus influenzae, ATCC49247, H. influenzae ATCC49247, Azi-S; read-out: MIC. The gist of the method:
as §1
Background: Dilution methods test growth across graded concentrations, often in twofold steps.

For another series, the system named is S. pneumoniae. The series is described as follows: MIC, broth microdilution. It is filed as cell-based, Streptococcus pneumoniae. The gist of the method:
as §1

In another series the test system is M. catarrhalis. The series is described as follows: MIC, broth microdilution. It is filed as cell-based, Moraxella catarrhalis. The conditions noted are these: Moraxella catarrhalis; M. catarrhalis 13L332, Ery-S; read-out: MIC. The method, then: MICs were determined by the microdilution method according to the Clinical and Laboratory Standards Institute guidelines. Briefly, the stock solution of compounds and the reference antibiotics were diluted 2-fold in sterile 96-well plates with cation-adjusted Mueller-Hinton broth, and mixed with CAMHB-containing bacteria to give a final inoculum of 5 × 10^5 CFU/mL for broth microdilution experiments. […] Finally, the 96-well plates were incubated at 37 °C for 16–20 h to observe and record the results. The lowest concentration at which no bacterial growth could be observed visually was identified as the MICs of the compounds. The assay for MICs was replicated at least three times.

For the next series, the system named is S. aureus. As to the kind of experiment: MIC, broth microdilution. It is filed as cell-based, Staphylococcus aureus. Summed up: as §1
Setting [2] is: Streptococcus pyogenes, S. pyogenes 12-206, c-ermTR, read-out: MIC.
Where [3] appears, read: Streptococcus pneumoniae, ATCC49619, S. pneumoniae ATCC49619, Ery-S, read-out: MIC.
[4] abbreviates: Streptococcus pneumoniae, S. pneumoniae 07P390, c-ermB, read-out: MIC.
Where [5] appears, read: Streptococcus pneumoniae, S. pneumoniae PU09, mef, read-out: MIC.

In brackets after ≈: the same amount, converted by molar mass. Where two headings read alike, the source gives them in different places.

`CCC1OC(=O)C(C)C(OC(=O)NCCCOCCC#Cc2ccc3c(=O)c(C(=O)O)cn(C4CC4)c3c2)C(C)C(OC2OC(C)CC(N(C)C)C2O)C(C)(OC)CC(C)C(=NOC)C(C)C2OC(=O)OC12C` (stereo not drawn) (hydrate or solvate) [72c] yielded a melting point of 144.6 to 145.2 °C.

The compound `CCOC(=O)c1cn(C)c2cc(C#CCCCCCCNC(=O)O[C@H]3[C@H](C)[C@@H](O[C@@H]4O[C@H](C)C[C@H](N(C)C)[C@H]4O)[C@](C)(OC)C[C@@H](C)C(=O)[C@H](C)[C@H]4NC(=O)O[C@]4(C)[C@@H](CC)OC(=O)[C@@H]3C)ccc2c1=O` (hydrate or solvate) [88h] gave a melting point of 141.1 to 142 °C.

For `CC[C@H]1OC(=O)[C@H](C)[C@@H](OC(=O)NCCCCCCC#Cc2ccc3c(=O)c(C(=O)O)c[nH]c3c2)[C@H](C)[C@@H](O[C@@H]2O[C@H](C)C[C@H](N(C)C)[C@H]2O)[C@](C)(OC)C[C@@H](C)C(=O)[C@H](C)[C@H]2NC(=O)O[C@@]21C` (hydrate or solvate) [88i], the melting point is 162.9 to 166 °C.

In turn, `CC[C@H]1OC(=O)[C@H](C)[C@@H](OC(=O)NCCCOCCC#Cc2ccc3c(=O)c(C(=O)O)cn(C4CC4)c3c2)[C@H](C)[C@@H](O[C@@H]2O[C@H](C)C[C@H](N(C)C)[C@H]2O)[C@](C)(OC)C[C@@H](C)C(=O)[C@H](C)[C@H]2NC(=O)O[C@@]21C` (hydrate or solvate) [95c] had a melting point of 163.6 to 163.9 °C.

On to `CC[C@H]1OC(=O)[C@H](C)[C@@H](OC(=O)NCCCOCCC#Cc2ccc3c(=O)c(C(=O)O)c[nH]c3c2)[C@H](C)[C@@H](O[C@@H]2O[C@H](C)C[C@H](N(C)C)[C@H]2O)[C@](C)(OC)C[C@@H](C)C(=O)[C@H](C)[C@H]2NC(=O)O[C@@]21C` (hydrate or solvate) [95i], for which the melting point is 163.7 to 164.9 °C.

With `CC[C@H]1OC(=O)[C@H](C)[C@@H](OC(=O)NCCCCOCCC#Cc2ccc3c(=O)c(C(=O)O)cn(C)c3c2)[C@H](C)[C@@H](O[C@@H]2O[C@H](C)C[C@H](N(C)C)[C@H]2O)[C@](C)(OC)C[C@@H](C)C(=O)[C@H](C)[C@H]2NC(=O)O[C@@]21C` (hydrate or solvate) [96g], the melting point was in the range of 172.1 to 173.5 °C.

As to `CC[C@H]1OC(=O)[C@H](C)[C@@H](OC(=O)NCCCOCCC#Cc2ccc3c(=O)c(C(=O)O)cn(C)c3c2)[C@H](C)[C@@H](O[C@@H]2O[C@H](C)C[C@H](N(C)C)[C@H]2O)[C@](C)(OC)C[C@@H](C)C(=O)[C@H](C)[C@H]2NC(=O)O[C@@]21C` (hydrate or solvate) [MCX-190], the melting point fell in the range of 157.9 to 158.8 °C.

In turn, `CC[C@H]1OC(=O)[C@H](C)[C@@H](OC(=O)NCCCCCCC#Cc2ccc3c(=O)c(C(=O)O)cn(C)c3c2)[C@H](C)[C@@H](O[C@@H]2O[C@H](C)C[C@H](N(C)C)[C@H]2O)[C@](C)(OC)C[C@@H](C)C(=O)[C@H](C)[C@H]2NC(=O)O[C@@]21C` (hydrate or solvate) [MCX-219] came in with a melting point of 179.5 to 180.3 °C.

Regarding `CCOC(=O)c1cn(C)c2cc(C#CCCCCCCNC(=O)O[C@H]3[C@H](C)[C@@H](O[C@@H]4O[C@H](C)C[C@H](N(C)C)[C@H]4O)[C@](C)(OC)C[C@@H](C)C(=O)[C@H](C)[C@H]4NC(=O)O[C@]4(C)[C@@H](CC)OC(=O)[C@@H]3C)ccc2c1=O` [88h], the MIC in the series with S. pyogenes (setting [2]) is 2 µg/mL (≈ 2.01 µM); with H. influenzae, 32 µg/mL (≈ 32.2 µM); in the series with S. pneumoniae (setting [3]), at most 0.008 µg/mL; in the series with S. pneumoniae (Streptococcus pneumoniae, S. pneumoniae 05O173, c-ermB, mef, read-out: MIC) it was 64 µg/mL (≈ 64.3 µM); in the series on S. pneumoniae (setting [4]), 0.5 µg/mL (≈ 0.502 µM); in the series with M. catarrhalis, 4 µg/mL (≈ 4.02 µM). Besides, the highest level in series [1] (male SD rats, i.v. 5 mg/kg) (Cmax) was 2650 ± 250 ng/mL. This compound also yielded an MRT in series [1] (male SD rats, i.v. 5 mg/kg) of 1.64 ± 0.665 h. In addition, the Tmax in series [1] (male SD rats, i.v. 5 mg/kg) came to 4.8 min. Further, the half-life in series [1] (male SD rats, i.v. 5 mg/kg) is 2.63 ± 1.3 h. Moreover, the total exposure AUC(0-inf) in series [1] (male SD rats, i.v. 5 mg/kg, mean ± SD, n 3) was determined as 1790 ± 90 ng·h/mL. In series [1] (male SD rats, i.v. 5 mg/kg, read-out: AUC0-24), the AUC(0-t) was 1760 ± 100 ng·h/mL. The compound also had a clearance in series [1] (male, 5 mg/kg) of 46.5 mL/min/kg.

With `CC[C@H]1OC(=O)[C@H](C)[C@@H](OC(=O)NCCCNCCC#Cc2ccc3c(=O)c(C(=O)O)cn(C4CC4)c3c2)[C@H](C)[C@@H](O[C@@H]2O[C@H](C)C[C@H](N(C)C)[C@H]2O)[C@](C)(OC)C[C@@H](C)C(=O)[C@H](C)[C@H]2NC(=O)O[C@@]21C` [98c], the melting point lay within 148.6 to 149.5 °C. For the same compound, the MIC in the series on S. aureus (Staphylococcus aureus, S. aureus 15B196, c-ermB, read-out: MIC) came to 256 µg/mL (≈ 257 µM). In addition, the MIC with S. aureus (Staphylococcus aureus, S. aureus PU32, i-ermA, read-out: MIC) worked out at 4 µg/mL (≈ 4.02 µM). Also, the MIC with S. pyogenes (setting [2]) was 2 µg/mL (≈ 2.01 µM). Also, in the series on H. influenzae, the MIC worked out at 64 µg/mL (≈ 64.4 µM). The MIC with S. pneumoniae (setting [3]) was determined as 0.5 µg/mL (≈ 0.503 µM). The MIC in the series on S. pneumoniae (setting [4]) was 2 µg/mL (≈ 2.01 µM). The MIC in the series with S. pneumoniae (setting [5]) is 0.5 µg/mL (≈ 0.503 µM).

With `CC[C@H]1OC(=O)[C@H](C)[C@@H](O[C@H]2C[C@@](C)(OC)[C@@H](O)[C@H](C)O2)[C@H](C)[C@@H](O[C@@H]2O[C@H](C)C[C@H](N(C)C)[C@H]2O)[C@](C)(OC)C[C@@H](C)C(=O)[C@H](C)[C@@H](O)[C@]1(C)O` [clarithromycin, reference compound], the MIC against S. aureus (S. aureus 15B196, c-ermB) is 512 µg/mL (≈ 685 µM); in the series with S. aureus (S. aureus ATCC29213) it was 0.25 µg/mL (≈ 0.334 µM); against S. aureus (S. aureus PU32, Clinical, MRSA, i-ermA), 16 µg/mL (≈ 21.4 µM); with S. pyogenes (S. pyogenes 12-206, c-ermTR), 512 µg/mL (≈ 685 µM); against S. pyogenes (S. pyogenes 21C303, Clinical, c-ermB), over 64 µg/mL; in the series with S. pyogenes (S. pyogenes 21D184, Clinical, c-ermB), over 64 µg/mL. Also, the MIC is over 64 µg/mL against S. pyogenes (S. pyogenes 21D199, Clinical, c-ermB); over 64 µg/mL against S. pyogenes (S. pyogenes 21D200, Clinical, c-ermB); 2 µg/mL (≈ 2.67 µM) in the series on S. pyogenes (S. pyogenes 21K003, Clinical, mef); over 64 µg/mL in the series with S. pyogenes (S. pyogenes 21M063, Clinical, c-ermB); over 64 µg/mL with S. pyogenes (S. pyogenes 21W186, Clinical, c-ermTR); 4 µg/mL (≈ 5.35 µM) in the series on S. pyogenes (Streptococcus pyogenes, S. pyogenes 01-968, i-ermTR (Table S5), read-out: MIC). Besides, the MIC is 16 µg/mL (≈ 21.4 µM) in the series with H. influenzae; 512 µg/mL (≈ 685 µM) in the series with S. pneumoniae (S. pneumoniae 07P390, c-ermB); over 64 µg/mL against S. pneumoniae (S. pneumoniae 21C315, Clinical, c-ermB); over 64 µg/mL against S. pneumoniae (S. pneumoniae 21D016, Clinical, c-ermB, mef); over 64 µg/mL against S. pneumoniae (S. pneumoniae 21D020, Clinical, c-ermB, mef); over 64 µg/mL with S. pneumoniae (S. pneumoniae 21M277, Clinical, c-ermB). The MIC in the series with S. pneumoniae (S. pneumoniae 21Q352, Clinical, i-MLSB) was 16 µg/mL (≈ 21.4 µM); against S. pneumoniae (S. pneumoniae 21Q353, Clinical, i-MLSB) it was 8 µg/mL (≈ 10.7 µM); with S. pneumoniae (S. pneumoniae 21W257, Clinical, c-ermB, mef), over 64 µg/mL; with S. pneumoniae (S. pneumoniae 21X435, Clinical) it was 0.12 µg/mL (≈ 0.16 µM); in the series with S. pneumoniae (S. pneumoniae ATCC49619), 0.12 µg/mL (≈ 0.16 µM); with S. pneumoniae (setting [5]), 8 µg/mL (≈ 10.7 µM). Also, in the series on M. catarrhalis, the MIC is 0.25 µg/mL (≈ 0.334 µM).
